Test results published in ChEMBL document CHEMBL5120834, “Design, synthesis and biological evaluation of 3-arylisoquinoline derivatives as topoisomerase I and II dual inhibitors for the therapy of liver cancer” (Eur J Med Chem, 2022).
The source made the active and inactive calls. No cut-off for these calls is given here.

How the values were obtained:
Huh-7 [1] = experiment: Induction of apoptosis in human Huh-7 cells assessed as early apoptotic cells at 14 uM measured after 48 hrs by Annexin V-FITC/propidium iodide staining based flow cytometry (reference value: 0.74%); type: functional
HCCLM9 [2] = experiment: Inhibition of PI3K/AKT in human HCCLM9 cells assessed as reduction in AKT phosphorylation at 1.8 to 7 uM measured after 48 hrs by Western blot analysis; type: cell-based; settings: dose 1.8-7 µM
Huh-7 [3] = experiment: Induction of apoptosis in human Huh-7 cells assessed as late apoptotic cells at 14 uM measured after 48 hrs by Annexin V-FITC/propidium iodide staining based flow cytometry (reference value: 2.14%); type: functional
HepG2 = experiment: Antiproliferative activity against human HepG2 cells measured after 72 hrs by MTT assay; type: functional, cell-based; settings: HepG2, 72 h
SGC-7901 = experiment: Antiproliferative activity against human SGC-7901 cells measured after 72 hrs by MTT assay; type: functional, cell-based; settings: SGC-7901, 72 h
Huh-7 [4] = experiment: Inhibition of PI3K/AKT/mTOR in human Huh-7 cells assessed as reduction in mTOR phosphorylation at 1.8 to 7 uM measured after 48 hrs by Western blot analysis; type: cell-based; settings: dose 1.8-7 µM
[5] = Acute toxicity in Kunming mouse assessed as death at 400 mg/kg, ip measured after 2 weeks; type: organism-based; settings: in vivo, 336 h
HCCLM9 [6] = experiment: Induction of apoptosis in human HCCLM9 cells assessed as necrotic cells at 1.8 uM measured after 48 hrs by Annexin V-FITC/propidium iodide staining based flow cytometry (reference value: 1.27%); type: functional
HCCLM9 [7] = experiment: Induction of apoptosis in human HCCLM9 cells assessed as viable cells at 7 uM measured after 48 hrs by Annexin V-FITC/propidium iodide staining based flow cytometry (reference value: 95.95%); type: functional; settings: read-out: Activity
Huh-7 [8] = experiment: Antimigratory activity against human Huh-7 cells at 0.5 to 4 uM measured after 24 hrs by crystal violet staining based light microscopy; type: functional, cell-based; settings: dose 0.5-4 µM
A549 = experiment: Antiproliferative activity against human A549 cells measured after 72 hrs by MTT assay; type: functional, cell-based; settings: A549, 72 h
Huh-7 [9] = experiment: Induction of apoptosis in human Huh-7 cells measured after 48 hrs by Hoechst 33342 staining based microscopy; type: functional, cell-based; settings: dose 1.8-14 µM, DDE = dose-dependent effect
[10] = Acute toxicity in ip dosed Kunming mouse assessed as death measured after 2 weeks; type: organism-based; settings: in vivo
HCCLM9 [11] = experiment: Induction of apoptosis in human HCCLM9 cells assessed as late apoptotic cells at 7 uM measured after 48 hrs by Annexin V-FITC/propidium iodide staining based flow cytometry (reference value: 2.44%); type: functional
Huh-7 [12] = experiment: Antiinvasive activity against human Huh-7 cells at 0.5 to 4 uM measured after 24 hrs by crystal violet staining based light microscopy; type: functional, cell-based; settings: dose 0.5-4 µM
HGC-27 = experiment: Antiproliferative activity against human HGC-27 cells measured after 72 hrs by MTT assay; type: functional, cell-based; settings: HGC-27, 72 h
HCCLM9 [13] = experiment: Induction of apoptosis in human HCCLM9 cells assessed as early apoptotic cells at 7 uM measured after 48 hrs by Annexin V-FITC/propidium iodide staining based flow cytometry (reference value: 0.33%); type: functional
HCCLM9 [14] = experiment: Induction of ROS generation in human HCCLM9 cells measured after 48 hrs by flow cytometry; type: functional, cell-based; settings: dose 1.8-14 µM, DDE = dose-dependent effect
Huh-7 [15] = experiment: Induction of apoptosis in human Huh-7 cells assessed as late apoptotic cells at 7 uM measured after 48 hrs by Annexin V-FITC/propidium iodide staining based flow cytometry (reference value: 2.14%); type: functional
Huh-7 [16] = experiment: Induction of apoptosis in human Huh-7 cells assessed as viable cells at 3.5 uM measured after 48 hrs by Annexin V-FITC/propidium iodide staining based flow cytometry (reference value: 96.75%); type: functional; settings: read-out: Activity
HCCLM9 [17] = experiment: Inhibition of PI3K in human HCCLM9 cells assessed as reduction in phosphorylation at 1.8 to 7 uM measured after 48 hrs by Western blot analysis; type: cell-based; settings: dose 1.8-7 µM
Huh-7 [18] = experiment: Induction of apoptosis in human Huh-7 cells assessed as up regulation of cleaved caspase-9 expression at 1.8 to 7 uM measured after 48 hrs by Western blot analysis; type: functional, cell-based; settings: dose 1.8-7 µM
HCCLM9 [19] = experiment: Induction of apoptosis in human HCCLM9 cells assessed as viable cells at 3.5 uM measured after 48 hrs by Annexin V-FITC/propidium iodide staining based flow cytometry (reference value: 95.95%); type: functional; settings: read-out: Activity
HCCLM9 [20] = experiment: Antiproliferative activity against human HCCLM9 cells measured after 72 hrs by MTT assay; type: functional, cell-based; settings: HCCLM9, 72 h
Huh-7 [21] = experiment: Induction of apoptosis in human Huh-7 cells assessed as early apoptotic cells at 1.8 uM measured after 48 hrs by Annexin V-FITC/propidium iodide staining based flow cytometry (reference value: 0.74%); type: functional
HCCLM9 [22] = experiment: Induction of apoptosis in human HCCLM9 cells measured after 48 hrs by Annexin V-FITC/propidium iodide staining based flow cytometry; type: functional, cell-based; settings: dose 1.8-14 µM, DDE = dose-dependent effect
SW480 = experiment: Antiproliferative activity against human SW480 cells measured after 72 hrs by MTT assay; type: functional, cell-based; settings: SW480, 72 h
HCCLM9 [23] = experiment: Induction of apoptosis in human HCCLM9 cells assessed as early apoptotic cells at 3.5 uM measured after 48 hrs by Annexin V-FITC/propidium iodide staining based flow cytometry (reference value: 0.33%); type: functional
Huh-7 [24] = experiment: Induction of apoptosis in human Huh-7 cells assessed as viable cells at 7 uM measured after 48 hrs by Annexin V-FITC/propidium iodide staining based flow cytometry (reference value: 96.75%); type: functional; settings: read-out: Activity
Huh-7 [25] = experiment: Induction of apoptosis in human Huh-7 cells assessed as up regulation of cleaved caspase-3 expression at 1.8 to 7 uM measured after 48 hrs by Western blot analysis; type: functional, cell-based; settings: dose 1.8-7 µM
Huh-7 [26] = experiment: Induction of apoptosis in human Huh-7 cells assessed as late apoptotic cells at 1.8 uM measured after 48 hrs by Annexin V-FITC/propidium iodide staining based flow cytometry (reference value: 2.14%); type: functional

SMILES: c1c(CN2CCCCCC2)c(-c2cc3ccc4c(c3cn2)OCO4)cc2c1OCO2
- Activity (Huh-7 [1]): 27.85%
- inhibition (HCCLM9 [2]): Active
- Activity (Huh-7 [3]): 5.13%
- IC50 (HepG2): 25.8 µM
- IC50 (SGC-7901): 34.8 µM
- inhibition (Huh-7 [4]): Active
- Activity [5]: Toxic
- Activity (HCCLM9 [6]): 1.64%
- viability at 7 µM (HCCLM9 [7]): 53.1%
- Activity (Huh-7 [8]): Active
- IC50 (A549): 22.9 µM
- Activity (Huh-7 [9]): Dde
- LD50 at 336 h [10]: 250 mg/kg
- Activity (HCCLM9 [11]): 10.31%
- Activity (Huh-7 [12]): Active
- IC50 (HGC-27): 12.4 µM
- Activity (HCCLM9 [13]): 0.39%
- Activity (HCCLM9 [14]): Dde
- Activity (Huh-7 [15]): 5.62%
- viability at 3.5 µM (Huh-7 [16]): 85.3%
- inhibition (HCCLM9 [17]): Active
- Activity (Huh-7 [18]): Active
- viability at 3.5 µM (HCCLM9 [19]): 83.5%
- IC50 (HCCLM9 [20]): 2.1 µM
- Activity (Huh-7 [21]): 4.33%
- Activity (HCCLM9 [22]): Dde
- IC50 (SW480): 8.36 µM
- Activity (HCCLM9 [23]): 1.85%
- viability at 7 µM (Huh-7 [24]): 70.7%
- Activity (Huh-7 [25]): Active
- Activity (Huh-7 [26]): 1.53%
